In article PMC3610419, “A Randomized, Double-Blind Placebo Controlled Trial of Balapiravir, a Polymerase Inhibitor, in Adult Dengue Patients” (The Journal of Infectious Diseases, 2012):
Marks after values point to notes of the source that are not given here.

Experiments:
NS1 = NS1 antigenemia (Platelia NS1 assay) in adult dengue patients, randomized placebo-controlled trial; assay type: in vivo, human; settings: Kaplan-Meier estimate
Method: (§1) Randomization to treatment group was by computer-generated randomization sequencing in blocks of 2. Balapiravir was formulated in a 500-mg film-coated tablet. The placebo consisted of an identical looking tablet containing excipient only. All balapiravir and placebo tablets were provided by F. Hoffmann-La Roche. Patients in cohort 1 (n = 20) received 1500 mg of balapiravir or an identical placebo orally every 12 hours for 5 days (10 doses). The decision to dose escalate (to 3000 mg) was made after review of the partially unblinded group mean clinical and laboratory data acquired from patients in cohort 1. Patients in cohort 2 (n = 44) received 3000 mg of balapiravir or placebo orally twice a day for 5 days (10 doses).

[1] = Safety and tolerability, adverse events in adult dengue patients; settings: for safety and tolerability: 1500 mg or 3000 mg orally twice daily for 5 days, adult dengue patients
Method: as §1
Eligible patients remained in clinic during a 7-day in-patient period then returned for follow-up visits on study days 14, 28, and 84. During the inpatient period, patient vital signs were assessed every 6 hours and routine laboratory investigations were performed daily or as clinically indicated. Safety and tolerability were monitored at regular intervals and included physical examinations, vital signs, electrocardiograms, clinical laboratory assessments, incidence of clinical adverse events, and concomitant medications. Any clinically significant abnormal laboratory test results were followed up until resolved or stabilized. A quality of life assessment, using a questionnaire and a visual analog scale, was implemented on study days 1, 3, 5, 7, 14, 28, and 84.

[2] = Host immune response (plasma cytokines, whole blood transcripts) and virus sequence diversity in adult dengue patients; assay type: in vivo, human
Method: Plasma samples were collected for virological and immunological investigations every 12 hours, beginning immediately before commencement of treatment, during the next 6 study days and on one occasion on study day 7 and day 14 (virological markers) or day 7 and day 28 (immunological markers). Viremia was measured using a validated, internally controlled reverse-transcription polymerase chain reaction assay in a Good Clinical Laboratory Practice environment. The limit of detection was 357 copies/mL for DENV-1, 72 copies/mL for DENV-2, 357 copies/mL for DENV-3, and 720 copies/mL for DENV-4. The presence of NS1 in plasma was determined using the Platelia NS1 assay (Bio-Rad) and was performed according to the manufacturer's instructions. Plasma cytokine levels (interleukin 1β [IL-1β], IL-2, IL-4, IL-5, IL-6, IL-10, IL-12p70, IL-13, interferon γ [IFN-γ], and tumor necrosis factor α [TNF-α]) were measured using a Bio-Plex human cytokine assay (Bio-Rad) and a multiplex array reader (Luminex Systems, Bio-Plex workstation from Bio-Rad Laboratories) according to the manufacturer's instructions. Briefly, 50-μL plasma samples were incubated with monoclonal antibody coupled beads. […] Cytokine concentrations in samples were calculated by use of recombinant cytokines as standards and software provided by the manufacturer (Bio-Plex Manager). […]

[3] = 4500 mg twice daily of balapiravir, HCV-infected persons, cited from earlier work
[4] = High dose (3000 mg twice a day, 5 days), n=22
[5] = Low dose (1500 mg twice a day, 5 days), n=10

CC(C)C(=O)OC[C@@]1(N=[N+]=[N-])O[C@@H](n2ccc(N)nc2=O)[C@H](OC(=O)C(C)C)[C@@H]1OC(=O)C(C)C [Balapiravir]
Median time to first negative NS1 test result (IQR) (NS1; High-dose (3000 mg twice a day, 5 days), n = 22): 4 (3–6) d | Median time to first negative NS1 test result (IQR) (NS1; Low-dose (1500 mg twice a day, 5 days), n = 10): 3 (3–14) d | reported serious adverse events (SAEs) ([1]; 1500 mg balapiravir arm): 1 | safety and tolerability [1]: safe and well-tolerated | safety and tolerability ([1]; listed as balapiravir): well tolerated | reported serious adverse events (SAEs) ([1]; 3000 mg balapiravir arm): 1 | ABDOMINAL PAIN [1, 4]: 3 (13.64%) no.pt. (%) | ABNORMAL INR [1, 4]: 1 (4.55%) no.pt. (%) | ALTERATION OF TASTE [1, 4]: 0 (0%) no.pt. (%) | ANOREXIA [1, 4]: 1 (4.55%) no.pt. (%) | ANY EVENT - no (%) patients with at least one event [1, 4]: 19 (86.36%) no.pt. (%) | ANY EVENT - no of events [1, 4]: 65 | BRUISING [1, 4]: 2 (9.09%) no.pt. (%) | COUGH [1, 4]: 4 (18.18%) no.pt. (%) | DECREASE OF FIBRINOGEN [1, 4]: 4 (18.18%) no.pt. (%) | DIARRHOEA [1, 4]: 8 (36.36%) no.pt. (%) | DYSPEPSIA [1, 4]: 1 (4.55%) no.pt. (%) | ELEVATED ALT [1, 4]: 0 (0%) no.pt. (%) | ELEVATED AST [1, 4]: 0 (0%) no.pt. (%) | EPISTAXIS [1, 4]: 0 (0%) no.pt. (%) | FLATULENCE [1, 4]: 0 (0%) no.pt. (%) | GUM BLEEDING [1, 4]: 6 (27.27%) no.pt. (%) | HEADACHE [1, 4]: 5 (22.73%) no.pt. (%) | HEMATEMESIS [1, 4]: 0 (0%) no.pt. (%) | HEMATURIA [1, 4]: 1 (4.55%) no.pt. (%) | HEMOPTYSIS [1, 4]: 0 (0%) no.pt. (%) | HYPOALBUMINEMIA [1, 4]: 1 (4.55%) no.pt. (%) | ITCHY RASH ON CHEEK, AND FOREHEAD [1, 4]: 0 (0%) no.pt. (%) | NARROW PULSE PRESSURE [1, 4]: 0 (0%) no.pt. (%) | NAUSEA [1, 4]: 2 (9.09%) no.pt. (%) | PETECHIAE [1, 4]: 6 (27.27%) no.pt. (%) | PROLONGED APTT [1, 4]: 7 (31.82%) no.pt. (%) | PROTEINURIA [1, 4]: 0 (0%) no.pt. (%) | PRURITIS [1, 4]: 0 (0%) no.pt. (%) | RETINAL INJURY [1, 4]: 0 (0%) no.pt. (%) | SORE THROAT [1, 4]: 0 (0%) no.pt. (%) | VERTIGO [1, 4]: 0 (0%) no.pt. (%) | VOMIT [1, 4]: 2 (9.09%) no.pt. (%) | THROMBOCYTOPENIA ([1]; High dose (3000 mg twice a day, 5 days), n=22, one patient in this group had a SAE): 11 (50%) ^a no.pt. (%) | ABDOMINAL PAIN [1, 5]: 0 (0%) no.pt. (%) | ABNORMAL INR [1, 5]: 0 (0%) no.pt. (%) | ALTERATION OF TASTE [1, 5]: 0 (0%) no.pt. (%) | ANOREXIA [1, 5]: 2 (20%) no.pt. (%) | ANY EVENT - no (%) patients with at least one event [1, 5]: 8 (80%) no.pt. (%) | ANY EVENT - no of events [1, 5]: 30 | BRUISING [1, 5]: 0 (0%) no.pt. (%) | COUGH [1, 5]: 0 (0%) no.pt. (%) | DECREASE OF FIBRINOGEN [1, 5]: 1 (10%) no.pt. (%) | DIARRHOEA [1, 5]: 4 (40%) no.pt. (%) | DYSPEPSIA [1, 5]: 1 (10%) no.pt. (%) | ELEVATED ALT [1, 5]: 0 (0%) no.pt. (%) | ELEVATED AST [1, 5]: 0 (0%) no.pt. (%) | EPISTAXIS [1, 5]: 0 (0%) no.pt. (%) | FLATULENCE [1, 5]: 0 (0%) no.pt. (%) | GUM BLEEDING [1, 5]: 0 (0%) no.pt. (%) | HEADACHE [1, 5]: 2 (20%) no.pt. (%) | HEMATEMESIS [1, 5]: 0 (0%) no.pt. (%) | HEMATURIA [1, 5]: 0 (0%) no.pt. (%) | HEMOPTYSIS [1, 5]: 0 (0%) no.pt. (%) | HYPOALBUMINEMIA [1, 5]: 1 (10%) no.pt. (%) | ITCHY RASH ON CHEEK, AND FOREHEAD [1, 5]: 1 (10%) no.pt. (%) | NAUSEA [1, 5]: 0 (0%) no.pt. (%) | PETECHIAE [1, 5]: 4 (40%) no.pt. (%) | PROLONGED APTT [1, 5]: 2 (20%) no.pt. (%) | PROTEINURIA [1, 5]: 1 (10%) no.pt. (%) | PRURITIS [1, 5]: 1 (10%) no.pt. (%) | RETINAL INJURY [1, 5]: 0 (0%) no.pt. (%) | SORE THROAT [1, 5]: 0 (0%) no.pt. (%) | THROMBOCYTOPENIA [1, 5]: 4 (40%) no.pt. (%) | VERTIGO [1, 5]: 1 (10%) no.pt. (%) | VOMIT [1, 5]: 4 (40%) no.pt. (%) | NARROW PULSE PRESSURE ([1]; Low dose (1500 mg twice a day, 5 days), n=10, one patient in this group had a SAE): 1 (10%) ^a no.pt. (%) | kinetics of plasma cytokine concentrations and whole blood transcriptional profile ([2]; balapiravir treatment versus placebo): not attenuated | treatment-related effects on whole blood gene transcript abundance ([2]; baseline, study days 4 and 28, data not shown): no evidence of treatment-related effects | mean Cmin [3]: 21 µM | Cmax ([3]; read-out: mean Cmax): 88 µM
